Test results: US8532742B2, “System and method for simultaneous 3DPR device tracking and imaging under MR-guidance for therapeutic endovascular interventions” (Wisconsin Alumni Research Foundation, priority 2006, dated 2013)

Assays:
[1] = MR visibility test of gelatin/DTPA[Gd(III)] coating on PE rod in saline and yogurt (Example 14); details: soaked in water for 12 hours before MRI test
Method: Samples having the above formulations were transferred to a glass tube and kept in a water bath at 35° C. A bare PE rod (5 cm in length) was then dipped into the solution, and then removed. The rod was then cooled to room temperature to allow chill-setting of the gelatin solution and to form the coating on the rod surface. The same procedure was repeated to overcoat additional layers of gel. The final dry thickness of gel-coating was about 60 μm.
The gelatin coatings were dried in air while being chemically cross-linked by BVSM. The dried and cross-linked samples were then soaked in distilled water for 12 hours. Soaking each sample in distilled water may remove the DTPA[Gd(III)] that was not physically or chemically constrained by the cross-linked network of gelatin overcoat. Because the DTPA[Gd(III)] complexes were not chemically linked to the gelatin chains, most of them would be expected to diffuse out of the coating when soaked in water, whereas some of DTPA[Gd(III)] may be confined by the crystal domains in gelatin or by hydrogen bonding between gelatin chains and DTPA. In any event, after the soaking, the gelatin coating was dried again in air before MRI test.
The MR visibility of the samples prepared as outlined above, was tested in two media: saline and yogurt. […]

[2] = Diffusion of a fluorescent probe in swollen gelatin gel by FRAP; type: physicochemical; details: coating thickness 60 μm, diffusion coefficient 9×10-12 m2s-1
Source text: To assess the stability of DTPA[Gd(III)] in the gelatin coating, the diffusion of a fluorescence probe in gelatin was studied by the technique of fluorescence recovery after photobleaching (FRAP). The instrument and data analysis scheme are described in Kim, S. H. and Yu, H., J. Phys. Chem. 1992, 96, 4034, which is hereby fully incorporated by reference. Fluorescein was used as the fluorescence probe due, in part, to its molecular size being roughly the same as that of DTPA[Gd(III)]. The focus of the study was to examine the possible retardation effects of gelatin concentration and cross-link density on the diffusion, which was determined at room temperature, i.e., below the gel point of gelatin. The diffusion of fluorescein probe slows down with the increase of gelatin concentration. The diffusion coefficient decreases from 1.5×10-10 to 9×10-12 […]-1 when the concentration of gelatin increases from 9% to 40%. […] Accordingly, the probe diffusion is more likely controlled by the concentration of gelatin rather than the cross-link density. On the other hand, the cross-link density may determine the swelling ratio of gelatin, i.e., the concentration of gelatin in aqueous solution. […]

Row | time to diffuse out of the gelatin coating [2] | SMILES | retention of complex in gelatin gel after soaking [1]
1 | – | O=C([O-])CN(CCN(CC(=O)[O-])CC(=O)O)CCN(CC(=O)[O-])CC(=O)O.[Gd+3] [DTPA[Gd(III)], gadolinium-diethylene triamine pentaacetic acid] | some fraction of DTPA[Gd(III)] remained in the gel
2 | about 67 seconds | O=C(O)CN(CCN(CC(=O)O)CC(=O)O)CCN(CC(=O)O)CC(=O)O [DTPA, diethylenetriaminepentaacetic acid] | –
